From US20250281497A1, “FUSED AMINO PYRIMIDINE COMPOUNDS FOR TREATMENT OF SEIZURE DISORDERS” (Ovid Therapeutics Inc., priority 2024, published 2025)

Parameters: species or system mice
Conditions: in vivo

C[C@@H]1CN(c2nc3c(c(Nc4ccc(C5CCCCC5)cc4)n2)COC3)CCO1 [Compound A, (R)—N-(4-cyclohexylphenyl)-2-(2-methylmorpholino)-5,7-dihydrofuro[3,4-d]pyrimidin-4-amine]
gross effects on mouse behavior, open field: no gross effects on mouse behavior
